Patent US5225607A, “Insecticidal ethers” (Imperial Chemical Industries PLC, priority 1985, dated 1993)

Experiments:
Type in all cases: in vivo
[1] = Insecticidal evaluation of fraction 1 and fraction 3 (resolved isomers); conditions: fraction 1 (92.9% isomer A) against fraction 3
Experimental: (±)-1,1,1-trifluoro-2-(4-ethoxyphenyl)-3-(3-phenoxybenzyloxy)propane was resolved by high pressure liquid chromatography, using a Pirkle type 1A column (25 cm×4.9 mm) at -20° C., and n-hexane containing 1% by volume chloroform as eluent, at a flow rate of 0.7 cm^3 /minute. Elution was monitored using a UV detector at […]. Two isomers were detected:isomer A (retention time ca. 51 minutes) and isomer B (retention time ca. 54.6 minutes). A total of three fractions were collected.

Tetranychus urticae = experiment: Insecticidal/acaricidal test, Tetranychus urticae (spider mites - adult), contact; conditions: 72 h, French bean leaf, 3 days, read-out: grading of mortality, TU
Outline: (§1)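 Product applied at 500, 250 or 100 ppm as acetone solution diluted in water with 0.01% Lissapol NX wetting agent, onto pests and/or their host plant or food medium. Mortality or knockdown scored 1–3 days after treatment and graded A (80–100%; 70–100% for S. exigua), B (50–79%; 50–69% for S. exigua) or C (<50%).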

Myzus persicae = experiment: Insecticidal test, Myzus persicae (aphids), contact; conditions: 72 h, Chinese Cabbage leaf, 3 days, read-out: grading of mortality, MP
Outline: as §1

Nilaparvata lugens = experiment: Insecticidal test, Nilaparvata lugens (brown planthopper), contact; conditions: 72 h, Cabbage leaf, 3 days, read-out: grading of mortality, NL
Outline: as §1

Musca domestica [2] = experiment: Knockdown test, Musca domestica (houseflies - adults); conditions: cotton wool/sugar, 4 hours, read-out: grading of knockdown, MD/KD
Outline: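 Knockdown scores were banded: A 80–100%, B 50–79%, C <50%. Test preparations of 500, 250 or 100 ppm compound were made in acetone, then diluted with water containing 0.01% Lissapol NX, and applied to Musca domestica adults.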

Musca domestica [3] = experiment: Insecticidal test, Musca domestica (houseflies - adults), contact; conditions: 24 h, cotton wool/sugar, 1 day, read-out: grading of mortality, MD
Outline: as §1

Blattella germanica = experiment: Insecticidal test, Blattella germanica (cockroach nymphs), residual; conditions: 72 h, plastic pot, 3 days, read-out: grading of mortality, BG
Outline: as §1

Heliothis virescens = experiment: whole plant or invertebrate; conditions: in Gossypium hirsutum, 72 h, read-out: grading of mortality, HV
Outline: as §1

Spodoptera exigua = experiment: Insecticidal test, Spodoptera exigua (lesser armyworm), residual; conditions: 72 h, cotton leaf, 3 days, read-out: grading of mortality, SE
Outline: as §1

Diabrotica balteata = experiment: Insecticidal test, Diabrotica balteata (rootworm larvae), residual; conditions: 72 h, filter paper/maize seed, 3 days, read-out: grading of mortality, DB
Outline: as §1

With `CCOc1ccc(C(COCc2cccc(Oc3ccccc3)c2)C(F)(F)F)cc1` (single isomer, unassigned) [isomer A, (+)-1,1,1-trifluoro-2-(4-ethoxyphenyl)-3-(3-p-henoxybenzyloxy)-propane] the “insecticidal activity of isomer A relative to isomer B” value [1] was “substantially more active than isomer B”.

For `FC(F)(F)Oc1ccc(C(Cl)(COCc2cccc(Oc3ccc(Cl)cc3)c2)C(F)(F)F)cc1` (stereo not shown) [Compound 60, 1,1,1-Trifluoro-2-chloro-2-(4-trifluoromethoxyphenyl)-3-(3-(4-chlorophenoxy)benzyloxy)propane], the mortality at 100 ppm (Tetranychus urticae) was < 50%, the mortality at 100 ppm (Myzus persicae) was 50 to 79% and the mortality at 100 ppm (Nilaparvata lugens) was 80 to 100%. For the same molecule, the pest or weed control at 100 ppm (Musca domestica [2]) was < 50%, the mortality at 100 ppm (Musca domestica [3]) was < 50% and the mortality at 100 ppm (Blattella germanica) was 80 to 100%. For the same molecule, the mortality at 100 ppm (Heliothis virescens) was 80 to 100%, the mortality at 100 ppm (Spodoptera exigua) was 70 to 100% and the mortality at 100 ppm (Diabrotica balteata) was < 50%.

In the case of `CCOc1ccc(C(COCc2cccc(Oc3ccccc3)c2)C(F)(F)F)cc1F` (stereo not shown) [Compound 14, 1,1,1-Trifluoro-2-(3-fluoro-4-ethoxyphenyl)-3-(3-phenoxybenzyloxy)propane], the mortality at 100 ppm (Tetranychus urticae) is reported as < 50%, the mortality at 100 ppm (Myzus persicae) is reported as 80 to 100% and the mortality at 100 ppm (Nilaparvata lugens) is reported as 80 to 100%. It also gave a pest or weed control at 100 ppm (Musca domestica [2]) of 80 to 100%, a mortality at 100 ppm (Musca domestica [3]) of 80 to 100% and a mortality at 100 ppm (Blattella germanica) of 80 to 100%. It also gave a mortality at 100 ppm (Heliothis virescens) of 80 to 100%, a mortality at 100 ppm (Spodoptera exigua) of 70 to 100% and a mortality at 100 ppm (Diabrotica balteata) of 80 to 100%.

For `CCOc1c(F)cc(C(O)(COCc2cccc(Oc3ccccc3)c2)C(F)(F)F)cc1F` (racemic) [Compound 176, (RS)-1,1,1-trifluoro-2-(3,5-difluoro-4-ethoxyphenyl)-3-(3-phenoxybenzyloxy)propan-2-ol], the mortality at 500 ppm (Tetranychus urticae) was < 50%, the mortality at 500 ppm (Myzus persicae) was < 50% and the mortality at 500 ppm (Nilaparvata lugens) was < 50%. The pest or weed control at 500 ppm (Musca domestica [2]) was 80 to 100%, the mortality at 500 ppm (Musca domestica [3]) was < 50% and the mortality at 500 ppm (Blattella germanica) was < 50%. The mortality at 500 ppm (Heliothis virescens) was 50 to 79%, the mortality at 500 ppm (Spodoptera exigua) was 70 to 100% and the mortality at 500 ppm (Diabrotica balteata) was 80 to 100%.

In the case of `COCc1ccc(C(COCc2cccc(Oc3ccc(Cl)cc3)c2)C(F)(F)F)cc1` (stereo not shown) [Compound 23, 1,1,1-Trifluoro-2-(4-methoxymethylphenyl)-3-(3-(4-chlorophenoxy)benzyloxy)propane], the mortality at 500 ppm (Tetranychus urticae) is reported as < 50%, the mortality at 500 ppm (Myzus persicae) is reported as 50 to 79% and the mortality at 500 ppm (Nilaparvata lugens) is reported as 80 to 100%. The pest or weed control at 500 ppm (Musca domestica [2]) was 80 to 100%, the mortality at 500 ppm (Musca domestica [3]) was 50 to 79% and the mortality at 500 ppm (Blattella germanica) was < 50%. For the same molecule, the mortality at 500 ppm (Heliothis virescens) was < 50%, the mortality at 500 ppm (Spodoptera exigua) was 70 to 100% and the mortality at 500 ppm (Diabrotica balteata) was 80 to 100%.

With `CCOc1ccc([C@H](CO[C@H](C)c2cccc(Oc3ccccc3)c2)C(F)(F)F)cc1` (racemic) [Compound 256, (2RS)-1,1,1-trifluoro-2-(4-ethoxyphenyl)-3-[(1RS)-1-(3-phenoxyphenyl)ethoxy]propane] the mortality at 500 ppm (Tetranychus urticae) was < 50%, the mortality at 500 ppm (Myzus persicae) was 80 to 100% and the mortality at 500 ppm (Nilaparvata lugens) was 80 to 100%. For the same molecule, the pest or weed control at 500 ppm (Musca domestica [2]) was 50 to 79%, the mortality at 500 ppm (Musca domestica [3]) was 80 to 100% and the mortality at 500 ppm (Blattella germanica) was < 50%. For the same molecule, the mortality at 500 ppm (Heliothis virescens) was 80 to 100%, the mortality at 500 ppm (Spodoptera exigua) was < 50% and the mortality at 500 ppm (Diabrotica balteata) was < 50%.

Molecule `FC(F)(F)c1ccc(C(F)(COCc2cccc(Oc3ccccc3)c2)C(F)(F)F)cc1` (stereo not shown) [Compound 84, 1,1,1,2-Tetrafluoro-2-(4-trifluoromethylphenyl)-3-(3-phenoxybenzyloxy)propane] has a mortality at 500 ppm (Tetranychus urticae) of 80 to 100%, a mortality at 500 ppm (Myzus persicae) of 80 to 100% and a mortality at 500 ppm (Nilaparvata lugens) of 80 to 100%. The pest or weed control at 500 ppm (Musca domestica [2]) was 80 to 100%, the mortality at 500 ppm (Musca domestica [3]) was 80 to 100% and the mortality at 500 ppm (Blattella germanica) was 80 to 100%. It also gave a mortality at 500 ppm (Heliothis virescens) of 80 to 100%, a mortality at 500 ppm (Spodoptera exigua) of 70 to 100% and a mortality at 500 ppm (Diabrotica balteata) of 80 to 100%.

In the case of `CC(C)(C)c1ccc(C(COCc2ccc(F)c(Oc3ccccc3)c2)C(F)(F)F)cc1` (stereo not shown) [Compound 21, 1,1,1-Trifluoro-2-(4-t-butylphenyl)-3-(3-phenoxy-4-fluorobenzyloxy)propane], the mortality at 500 ppm (Tetranychus urticae) is reported as 80 to 100%, the mortality at 500 ppm (Myzus persicae) is reported as 80 to 100% and the mortality at 500 ppm (Nilaparvata lugens) is reported as < 50%. The pest or weed control at 500 ppm (Musca domestica [2]) was 80 to 100%, the mortality at 500 ppm (Musca domestica [3]) was 80 to 100% and the mortality at 500 ppm (Blattella germanica) was 50 to 79%. For the same molecule, the mortality at 500 ppm (Heliothis virescens) was 80 to 100%, the mortality at 500 ppm (Spodoptera exigua) was 70 to 100% and the mortality at 500 ppm (Diabrotica balteata) was 80 to 100%.

With `OC(COCc1cccc(Oc2ccccc2)n1)(c1ccc(OC(F)(F)F)cc1)C(F)(F)F` (stereo not shown) [Compound 136, 1,1,1-Trifluoro-2-(4-trifluoromethoxyphenyl)-3-(6-phenoxy-2-pyridylmethyloxy)propan-2-ol] the mortality at 500 ppm (Tetranychus urticae) was < 50%, the mortality at 500 ppm (Myzus persicae) was < 50% and the mortality at 500 ppm (Nilaparvata lugens) was < 50%. For the same molecule, the pest or weed control at 500 ppm (Musca domestica [2]) was 80 to 100%, the mortality at 500 ppm (Musca domestica [3]) was 80 to 100% and the mortality at 500 ppm (Blattella germanica) was < 50%. The mortality at 500 ppm (Heliothis virescens) was 50 to 79%, the mortality at 500 ppm (Spodoptera exigua) was < 50% and the mortality at 500 ppm (Diabrotica balteata) was 80 to 100%.

For `Fc1ccc(COCC(F)(c2ccc(Br)cc2)C(F)(F)F)cc1Oc1ccccc1` (stereo not shown) [Compound 83, 1,1,1,2-Tetrafluoro-2-(4-bromophenyl)-3-(3-phenoxy-4-fluorobenzyloxy)propane], the mortality at 500 ppm (Tetranychus urticae) was < 50%, the mortality at 500 ppm (Myzus persicae) was 80 to 100% and the mortality at 500 ppm (Nilaparvata lugens) was 80 to 100%. For the same molecule, the pest or weed control at 500 ppm (Musca domestica [2]) was 80 to 100%, the mortality at 500 ppm (Musca domestica [3]) was 80 to 100% and the mortality at 500 ppm (Blattella germanica) was 80 to 100%. The mortality at 500 ppm (Heliothis virescens) was 80 to 100%, the mortality at 500 ppm (Spodoptera exigua) was 70 to 100% and the mortality at 500 ppm (Diabrotica balteata) was 80 to 100%.
